Key:
[1] = target: Neuronal acetylcholine receptor; alpha4/beta2 (Homo sapiens, UniProt P17787+P43681); test: In vitro Binding affinity towards Nicotinic acetylcholine receptor alpha4-beta2 was determined; format: protein-complex assay
[2] = target: Neuronal acetylcholine receptor subunit alpha-7 (Mus musculus, UniProt P49582); test: In vitro Binding affinity towards alpha-7 nAChR was determined
[3] = target: Neuronal acetylcholine receptor subunit alpha-7 (Mus musculus) (UniProt P49582); test: Functional activity is expressed as percent efficacy for alpha-7 nAChR.
[4] = target: Serotonin 3 (5-HT3) receptor; test: In vitro Binding affinity towards 5-hydroxytryptamine 3 receptor was determined; format: protein-complex assay
[5] = target: T1, Acetylcholine receptor; alpha1/beta1/delta/gamma (Homo sapiens, UniProt P02708+P07510+P11230+Q07001); test: In vitro Binding affinity towards alpha-1-beta-1-gamma delta nAChR was determined
[6] = target: T1, Acetylcholine receptor; alpha1/beta1/delta/gamma; test: In vitro Binding affinity towards alpha-1-beta-1-gamma-delta nAChR was determined; format: protein-complex assay
[7] = target: Neuronal acetylcholine receptor subunit alpha-7 (Homo sapiens, UniProt P36544); test: Effective concentration that causes inhibition of alpha-7 nAChR, was determined. Values are expressed as EC50 +/- SEM.; format: functional
Chain of Neuronal acetylcholine receptor subunit alpha-7 (Homo sapiens, UniProt P36544) (P36544 whole entry): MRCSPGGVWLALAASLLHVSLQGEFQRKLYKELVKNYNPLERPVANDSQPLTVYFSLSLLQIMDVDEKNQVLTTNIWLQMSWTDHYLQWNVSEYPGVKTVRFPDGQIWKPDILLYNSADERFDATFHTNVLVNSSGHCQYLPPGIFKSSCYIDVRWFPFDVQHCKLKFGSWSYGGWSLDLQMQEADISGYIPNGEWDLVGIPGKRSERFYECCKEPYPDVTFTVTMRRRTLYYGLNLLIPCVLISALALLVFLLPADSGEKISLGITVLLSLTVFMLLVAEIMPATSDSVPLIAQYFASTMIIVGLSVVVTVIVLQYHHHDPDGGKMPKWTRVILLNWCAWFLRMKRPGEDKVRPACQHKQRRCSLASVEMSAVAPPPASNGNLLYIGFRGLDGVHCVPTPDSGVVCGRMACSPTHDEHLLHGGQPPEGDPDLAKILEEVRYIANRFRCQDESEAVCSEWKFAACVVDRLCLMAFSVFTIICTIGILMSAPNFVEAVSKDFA

Chain of Neuronal acetylcholine receptor subunit alpha-7 (Mus musculus, UniProt P49582) (P49582 whole entry): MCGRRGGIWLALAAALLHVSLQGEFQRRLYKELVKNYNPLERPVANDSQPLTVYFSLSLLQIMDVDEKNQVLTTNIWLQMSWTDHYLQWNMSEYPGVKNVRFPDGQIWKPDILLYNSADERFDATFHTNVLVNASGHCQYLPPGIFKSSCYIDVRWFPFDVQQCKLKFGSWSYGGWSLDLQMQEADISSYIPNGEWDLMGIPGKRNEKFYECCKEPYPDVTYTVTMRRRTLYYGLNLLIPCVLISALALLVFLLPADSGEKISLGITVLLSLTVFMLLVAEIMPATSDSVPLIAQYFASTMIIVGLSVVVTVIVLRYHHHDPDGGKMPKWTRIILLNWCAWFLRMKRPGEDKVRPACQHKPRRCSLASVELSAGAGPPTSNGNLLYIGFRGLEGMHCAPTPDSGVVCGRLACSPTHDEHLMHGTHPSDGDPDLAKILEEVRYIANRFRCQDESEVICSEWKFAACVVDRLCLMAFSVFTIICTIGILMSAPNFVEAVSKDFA
Chain of Neuronal acetylcholine receptor subunit alpha-7 (Mus musculus) (P49582 whole entry): as above
T1 sequence (P02708 whole entry): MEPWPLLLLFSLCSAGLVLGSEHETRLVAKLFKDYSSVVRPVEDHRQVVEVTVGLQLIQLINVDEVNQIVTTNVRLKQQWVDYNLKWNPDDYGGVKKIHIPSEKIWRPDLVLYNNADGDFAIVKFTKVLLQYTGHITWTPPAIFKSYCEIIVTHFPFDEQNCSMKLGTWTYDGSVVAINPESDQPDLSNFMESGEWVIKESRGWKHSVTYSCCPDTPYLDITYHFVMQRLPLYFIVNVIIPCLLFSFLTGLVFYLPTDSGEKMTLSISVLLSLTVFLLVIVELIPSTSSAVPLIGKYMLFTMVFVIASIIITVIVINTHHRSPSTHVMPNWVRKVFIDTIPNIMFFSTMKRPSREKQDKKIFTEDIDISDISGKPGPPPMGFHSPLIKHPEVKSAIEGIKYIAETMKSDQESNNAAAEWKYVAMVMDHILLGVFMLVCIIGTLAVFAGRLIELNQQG
T1 sequence (P07510 whole entry): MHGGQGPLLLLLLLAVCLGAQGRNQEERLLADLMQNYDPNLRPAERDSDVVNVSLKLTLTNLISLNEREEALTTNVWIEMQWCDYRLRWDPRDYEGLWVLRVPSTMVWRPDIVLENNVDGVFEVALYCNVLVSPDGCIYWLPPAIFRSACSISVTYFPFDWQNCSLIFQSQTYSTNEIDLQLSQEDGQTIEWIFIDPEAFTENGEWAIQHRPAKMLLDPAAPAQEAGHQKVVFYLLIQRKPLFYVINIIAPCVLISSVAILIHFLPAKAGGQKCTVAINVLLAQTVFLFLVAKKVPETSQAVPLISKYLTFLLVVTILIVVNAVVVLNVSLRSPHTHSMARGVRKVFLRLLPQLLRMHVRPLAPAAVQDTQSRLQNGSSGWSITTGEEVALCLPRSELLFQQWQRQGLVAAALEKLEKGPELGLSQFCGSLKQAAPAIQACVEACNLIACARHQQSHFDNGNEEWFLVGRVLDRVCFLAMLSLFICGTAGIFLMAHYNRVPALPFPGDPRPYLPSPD
T1 sequence (P11230 whole entry): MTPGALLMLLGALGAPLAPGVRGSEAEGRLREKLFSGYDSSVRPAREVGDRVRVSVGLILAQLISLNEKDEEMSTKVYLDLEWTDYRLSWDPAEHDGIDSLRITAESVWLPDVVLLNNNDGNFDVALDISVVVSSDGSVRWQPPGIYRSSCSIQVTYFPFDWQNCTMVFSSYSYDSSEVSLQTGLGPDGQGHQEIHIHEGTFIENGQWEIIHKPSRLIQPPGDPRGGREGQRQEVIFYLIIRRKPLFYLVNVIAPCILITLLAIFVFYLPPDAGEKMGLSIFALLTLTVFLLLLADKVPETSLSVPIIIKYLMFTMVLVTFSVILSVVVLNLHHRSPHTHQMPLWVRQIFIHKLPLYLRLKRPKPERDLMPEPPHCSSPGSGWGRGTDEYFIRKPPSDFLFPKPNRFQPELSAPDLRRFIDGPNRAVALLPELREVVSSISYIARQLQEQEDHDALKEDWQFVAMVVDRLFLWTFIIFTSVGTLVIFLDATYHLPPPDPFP
T1 sequence (Q07001 whole entry): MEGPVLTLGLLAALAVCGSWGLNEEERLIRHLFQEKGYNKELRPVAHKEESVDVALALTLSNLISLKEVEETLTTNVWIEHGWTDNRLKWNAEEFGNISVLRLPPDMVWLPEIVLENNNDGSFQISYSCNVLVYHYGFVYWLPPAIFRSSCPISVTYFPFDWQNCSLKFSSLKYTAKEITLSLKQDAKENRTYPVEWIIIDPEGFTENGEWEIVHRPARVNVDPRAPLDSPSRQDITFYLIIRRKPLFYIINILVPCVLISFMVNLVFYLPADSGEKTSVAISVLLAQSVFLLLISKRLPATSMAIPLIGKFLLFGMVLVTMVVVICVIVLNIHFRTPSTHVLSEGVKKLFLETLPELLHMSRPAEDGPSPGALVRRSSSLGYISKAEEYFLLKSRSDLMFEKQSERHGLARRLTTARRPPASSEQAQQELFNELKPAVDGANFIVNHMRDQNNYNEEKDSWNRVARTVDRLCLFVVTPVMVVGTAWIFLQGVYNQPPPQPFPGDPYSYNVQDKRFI
Chain of Neuronal acetylcholine receptor; alpha4/beta2 (P17787 whole entry): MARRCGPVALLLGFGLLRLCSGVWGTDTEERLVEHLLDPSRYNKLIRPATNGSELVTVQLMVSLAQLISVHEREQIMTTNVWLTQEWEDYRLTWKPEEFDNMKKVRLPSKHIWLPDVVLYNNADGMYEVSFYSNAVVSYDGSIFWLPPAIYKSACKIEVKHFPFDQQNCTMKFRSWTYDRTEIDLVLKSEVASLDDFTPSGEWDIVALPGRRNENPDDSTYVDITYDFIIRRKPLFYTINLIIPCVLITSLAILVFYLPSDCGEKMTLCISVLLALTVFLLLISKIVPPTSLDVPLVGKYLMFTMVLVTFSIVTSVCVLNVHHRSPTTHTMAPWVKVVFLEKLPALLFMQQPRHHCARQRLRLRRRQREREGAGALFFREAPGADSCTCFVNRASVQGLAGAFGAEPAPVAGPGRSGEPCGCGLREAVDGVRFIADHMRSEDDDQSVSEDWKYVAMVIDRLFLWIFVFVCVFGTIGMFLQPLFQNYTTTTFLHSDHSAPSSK
Chain of Neuronal acetylcholine receptor; alpha4/beta2 (P43681 whole entry): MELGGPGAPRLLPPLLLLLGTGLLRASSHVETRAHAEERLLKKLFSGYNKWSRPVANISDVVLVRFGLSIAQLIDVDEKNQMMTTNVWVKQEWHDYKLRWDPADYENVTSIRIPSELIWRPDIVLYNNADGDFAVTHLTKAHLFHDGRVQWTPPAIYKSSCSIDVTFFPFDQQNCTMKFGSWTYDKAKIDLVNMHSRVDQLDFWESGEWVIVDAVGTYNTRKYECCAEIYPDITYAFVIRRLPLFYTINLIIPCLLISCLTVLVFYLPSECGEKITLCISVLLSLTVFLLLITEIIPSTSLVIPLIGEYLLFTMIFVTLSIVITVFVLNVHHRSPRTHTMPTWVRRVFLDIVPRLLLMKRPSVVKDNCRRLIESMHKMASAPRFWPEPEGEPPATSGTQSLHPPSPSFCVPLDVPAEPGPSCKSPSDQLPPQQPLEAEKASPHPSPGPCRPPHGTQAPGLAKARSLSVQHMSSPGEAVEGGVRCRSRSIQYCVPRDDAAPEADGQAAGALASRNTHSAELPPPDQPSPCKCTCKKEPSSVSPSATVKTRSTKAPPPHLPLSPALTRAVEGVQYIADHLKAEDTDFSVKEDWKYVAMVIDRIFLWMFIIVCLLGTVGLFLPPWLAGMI

Row | SMILES | Ki [1] [µM] | Ki [2] [µM] | Efficacy [3] [%] | Ki [4] [µM] | Ki [5] [µM] | Ki [6] [µM] | EC50 [7] [µM]
1 | Cc1nccn1CC1CCc2c(c3ccccc3n2C)C1=O (configuration not stated) [ONDANSETRON] | 46 | > 3 |  |  |  |  | 
2 | CC(=O)OCC[N+](C)(C)C |  |  | 100 |  |  |  | 
3 | CN1C2CCCC1CC(NC(=O)c1nn(C)c3ccccc13)C2 (configuration not stated) [GRANISETRON] | 38 | > 10 |  |  |  |  | 
4 | CN1CCC[C@H]1c1cccnc1 [NICOTINE] |  | 0.48 | 53 | 71 | 5.5 |  | 
5 | CN1[C@@H]2CC[C@H]1C[C@@H](OC(=O)c1c[nH]c3ccccc13)C2 [TROPISETRON] | 55 |  |  |  |  | 27 | 
6 | C[N+]1(C)C2CCC1CC(OC(=O)c1c[nH]c3ccccc13)C2 (configuration not stated) | 7.8 | 0.0064 | 13 | 0.0072 |  | 3 | 0.28
7 | O=C(OC1CN2CCC1CC2)n1ccc2ccccc21 (configuration not stated) | 14 | 0.0088 | 17 | 0.01 |  |  | 4.8

Reference: ChEMBL document CHEMBL1134160 (Bioorg Med Chem Lett, 2001)
